Here are results for 4 molecules from paper PMC10743905, “Design, Synthesis, and In Vitro and In Vivo Bioactivity Studies of Hydrazide–Hydrazones of 2,4-Dihydroxybenzoic Acid” (International Journal of Molecular Sciences, 2023).

Molecules are shown by their SMILES. Values after ≈ are worked out from the molar mass of the structure shown. Read-outs that look alike come from different tables or passages of the source. Some results are limits rather than exact numbers.

Series [1] concerns reference Gram-positive bacteria. The experiment in a line: Broth microdilution, summary over the Gram-positive panel. The format is cell-based. Put shortly: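 Compounds in DMSO were two-fold diluted in Mueller-Hinton broth (bacteria) or RPMI 1640 with MOPS (fungi), final 1000 to 0.488 µg/ml.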
A general note: Dilution methods test growth across graded concentrations, often in twofold steps.

For orientation: melting point means the temperature of the solid-liquid transition. What is called MBC is the lowest tested concentration that kills the bacteria rather than only halting them. Low values mean greater bactericidal potency, high ones weaker bactericidal potency. What is called MIC is the least concentration at which growth counts as inhibited. Regarding `O=C(N/N=C/c1cc(I)cc(I)c1O)c1ccc(O)cc1O` [Compound 18, 2,4-dihydroxy-N-[(2-hydroxy-3,5-diiodophenyl)methylidene]benzohydrazide], the melting point stood at 220 °C. The molecule further displayed an MBC in series [1] of 1.95 to 31.2 µg/mL (≈ 3.72 to 59.6 µM). Also, the MIC in series [1] (read-out: MIC) was in the range of 0.48 to 7.81 µg/mL (≈ 0.916 to 14.9 µM).

Regarding `CCCc1ccc(/C=N/NC(=O)c2ccc(O)cc2O)cc1` [Compound 13, 2,4-dihydroxy-N-[(4-propylphenyl)methylidene]benzohydrazide], the melting point came to 197 °C. The molecule further gave a minimal bactericidal concentration (MBC) in series [1] greater than 1000 µg/mL. Besides, the minimum inhibitory concentration (MIC) in series [1] (read-out: MIC) came to 1000 µg/mL (≈ 3350 µM).

In series [1], `O=C(N/N=C/c1ccc([N+](=O)[O-])cc1)c1ccc(O)cc1O` [Compound 21, 2,4-dihydroxy-N-[(4-nitrophenyl)methylidene]benzohydrazide] showed an MIC of 500 to 1000 µg/mL (≈ 1660 to 3320 µM).

In the case of `O=C(N/N=C/c1ccccc1[N+](=O)[O-])c1ccc(O)cc1O` [Compound 19, 2,4-dihydroxy-N-[(2-nitrophenyl)methylidene]benzohydrazide], the minimal inhibitory concentration (MIC) in series [1] is 250 to 1000 µg/mL (≈ 830 to 3320 µM).
